Reference: patent US20110230476A1, “PI3 KINASE INHIBITORS AND USES THEREOF” (AVILA THERAPEUTICS, INC., priority 2009, published 2011)
Entries after “also recorded” stand apart in the source; their conditions may differ.

What was measured:
[1] = tested on: SKOV3 cells; experiment: GI50 determinations in SKOV3 cells; assay type: cell-based; settings: Homo sapiens, SK-OV-3
[2] = target: T1, PI3Kα (p110α/p85α) (Homo sapiens, UniProt P42336); experiment: HTRF assay, potency against active PI3Kα; assay type: biochemical; settings: HTRF; [ATP]=50 μM, [di-C8-PIP2]=10 μM; 30 min pre-incubation; read-out: PI3Kα Inhibition
T1 construct: purchased BPS Bioscience (San Diego, Calif.) or Millipore (Billerica, Mass.)
Summary of the method: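 Active p110/p85α lipid kinase reactions were started with ATP and run 30-60 minutes at 25 °C, then stopped and developed with HTRF detection mix. HTRF ratio converted to % inhibition against ±enzyme controls; IC50 from log[inhibitor] vs response, variable slope.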

[3] = target: T2, PI3Kβ (p110β/p85α) (Homo sapiens, UniProt P42338); experiment: HTRF assay, potency against active PI3Kβ; assay type: biochemical; settings: [ATP]=50 μM, [di-C8-PIP2]=10 μM, 30 min pre-incubation, read-out: PI3Kβ Inhibition
T2 construct: purchased BPS Bioscience (San Diego, Calif.) or Millipore (Billerica, Mass.)
Method: Homogeneous Time Resolved Fluorescence (HTRF) Assay Protocol for Potency Assessment Against the Active Forms of PI3Kα, PI3Kβ, and PI3Kγ
The mechanics of the assay platform are best described by the vendor (Millipore, Billerica, Mass.) on their website at the following URL: www.millipore.com/coa/tech1/74jt4z.
Briefly, Stop solution (Stop A, #33-007 and Stop B, #33-009; 3:1 ratio) and Detection Mix (from DMC, #33-015 with DMA, #33-011 and DMB, #33-013; 18:1:1 ratio) were prepared as recommended by the manufacturer about 2 hrs prior to use. […] Lipid kinase reactions were started with the addition of 5 μL of ATP solution, mixed for 15 sec on a rotary plate shaker and incubated for 30-60 minutes at 25° C. Next, reactions were stopped with a 5 μL addition of Stop solution immediately followed by a 5 μL volume of Detection Mix. […] At the conclusion of each assay, the HTRF ratio from fluorescence emission values for each well was calculated and % Inhibition determined from averaged controls wells (+/−PI3K enzyme). % Inhibition values for each compound were then plotted against inhibitor concentration to estimate IC50 from log [Inhibitor] vs Response, Variable Slope model in GraphPad Prism from GraphPad Software (San Diego, Calif.).

[4] = tested on: Phospho-Akt(Ser473); experiment: Dose response in SKOV3 cells as determined by in-cell Western; assay type: cell-based
Summary of the method: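 SKOV3 cells treated with compound for 1 hr, then formaldehyde-fixed, permeabilised and stained overnight for phospho-Akt(Ser473) with anti-tubulin as a reference. Infrared secondary antibodies read at 680 and 800 nm channels by in-cell Western imaging.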

[5] = target: T3, PI3Kα (Homo sapiens, UniProt P42336); experiment: Trypsin digest and MS-MS analysis of compound-treated PI3Kα; assay type: binding; parameters: purchased Millipore 14-602; settings: in-gel trypsin digest
Method: (§1) The PI3Kα protein band was then excised and subjected to an in-gel trypsin digest by reducing the protein with DTT, alkylating the thiols with iodoacetamide, and then incubating the protein gel band with trypsin overnight in a 37° C. water bath. The digest was then stopped by addition of trifluoroacetic acid, and peptides were removed from gel band by sonicating with increasing amounts of acetonitrile (0%, 30%, & 60%). Peptides were then purified using C18 ziptips, spotted on the MALDI target plate with α-cyano-4-hydroxycinnamic acid as the desorption matrix (10 mg/ml in 0.1% TFA:Acetonitrile 50:50), and analyzed in reflectron mode.
as §1, with “trifluoro acetic” for “trifluoroacetic”

[6] = target: T3, PI3Kα; experiment: Mass spectrometry of intact PI3Kα (Millipore, 14-602), 1 hr incubation; assay type: binding; parameters: purchased Millipore 14-602; settings: 10× fold excess of compound, MALDI
Method: Mass Spectrometry for PI3K
Aliquots (5 μl) of the samples were diluted with 15 μl of 0.2% TFA prior to micro C4 ZipTipping directly onto the MALDI target using Sinapinic acid as the desorption matrix (10 mg/ml in 0.1% TFA:Acetonitrile 50:50).

[7] = target: T4, PI3Kγ (p120γ) (Homo sapiens, UniProt P48736); experiment: HTRF assay, potency against active PI3Kγ; assay type: biochemical; settings: [ATP]=50 μM, [di-C8-PIP2]=10 μM, 30 min pre-incubation, read-out: PI3Kγ Inhibition
T4 construct: purchased BPS Bioscience (San Diego, Calif.) or Millipore (Billerica, Mass.)
Summary of the method: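 End-point competition HTRF: enzyme (p110β/p85α 0.75 nM; p120γ 2-2.5 nM) with 10 μM di-C8-PIP2 pre-incubated 30 min at 25° C with compound, then 50 μM ATP added for 30-60 min at 25° C. Stopped, detected after 1 and 18 h; IC50 from variable-slope fit.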

[8] = tested on: PI3 kinase; experiment: Comparison of covalent and non-covalent inhibitors (Tables 18 and 19): prolonged PD, mechanism
Method: “A” designates ≦10 nM; “B” designates 10-100 nM; and “C” designates 100-1000 nM

[9] = tested on: SK-OV-3 cells; experiment: SK-OV-3 cell proliferation assay; assay type: cell-based; settings: Homo sapiens; SK-OV-3 proliferation, 72 hours, Cell Titer Glo
Method: SK-OV-3 Cell Proliferation Assay
(§2) For the SK-OV-3 proliferation Assay, 5000 cells per well were plated in Growth Media (DMEM, 10% FBS, 1% 1-glutamine, 1% penicillin/streptomycin) in 96 well plates. The following day, compounds were added to duplicate wells at concentrations of 10 uM and 3-fold dilutions down to 40 nM. The plates were returned to the incubator for 72 hours and then the assays were developed using Cell Titer Glo (Promega, Madison, Wis.) according to manufacturer's instructions.

[10] = target: p110alpha (Homo sapiens, UniProt P42336); experiment: In vitro occupancy in SKOV-3 cells with covalent probe; assay type: cell-based; settings: for target occupancy (competition with the covalent probe): covalent probe XIV-a-3 or XIV-a-4
[11] = tested on: SKOV-3 tumors; experiment: Tumor growth inhibition in vivo; settings: nude mice, subcutaneous SKOV-3 tumors; GDC-941 orally, II-a-3 I.P., 50-100 mg/Kg/QD, 21 days
Method: Tumor Growth Inhibition In Vivo
The in vivo experiment was performed at Piedmont Research Center (Research Triangle Park, N.C.). Nude mice were implanted with SKOV-3 tumors subcutaneously. […] Dosing continued for 21 days. Tumor volume was measured twice a week.

[12] = tested on: PI3K; experiment: PI3K HCT116 cellular assay (Western blot); assay type: cell-based; settings: Homo sapiens, HCT-116, HCT116 colon cancer cells, 1 hour incubation, read-out: PI3K Inhibition
Method: PI3K HCT116 Cellular Assay
Selected compounds were assayed in HCT116 colon cancer cells. […] Cells were then washed with PBS, lysed and the protein lysates were then recovered and analyzed by Western blot.

[13] = tested on: HCT116 cells; experiment: HCT-116 cell proliferation assay; assay type: cell-based; settings: Homo sapiens, 72 hours, Cell Titer Glo
Method: HCT-116 Cell Proliferation Assay
as §2, with “HCT116 Proliferation” for “SK-OV-3 proliferation”, “3000” for “5000”

[14] = tested on: Phospho-Akt(Ser473); experiment: Dose response in SKOV3 cells as determined by Western blot; assay type: cell-based; settings: Homo sapiens, SK-OV-3, 1 hr, Phospho-Akt normalized to total Akt, read-out: Immunoblot
Summary of the method: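 SKOV3 cells in DMEM/10% FBS were treated with compound in 0.1% DMSO for 1 hr, then lysed. 50 ug protein was immunoblotted for Phospho-Akt(Ser473) and total Akt with fluorescent read-out. Phospho-Akt was normalized to total Akt and expressed as percent of untreated signal.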

[15] = SKOV3 cells, 96 hours, Cell Titer Glo
[16] = Homo sapiens, SK-OV-3, SKOV3 cells, 1 hr, read-out: pAKT Inhibition in cell Western
[17] = Homo sapiens, SK-OV-3, Table 18, assay not given, classes agree with Table 23, read-out: EC50 pAkt^Ser473

Chain of p110alpha (P42336 whole entry): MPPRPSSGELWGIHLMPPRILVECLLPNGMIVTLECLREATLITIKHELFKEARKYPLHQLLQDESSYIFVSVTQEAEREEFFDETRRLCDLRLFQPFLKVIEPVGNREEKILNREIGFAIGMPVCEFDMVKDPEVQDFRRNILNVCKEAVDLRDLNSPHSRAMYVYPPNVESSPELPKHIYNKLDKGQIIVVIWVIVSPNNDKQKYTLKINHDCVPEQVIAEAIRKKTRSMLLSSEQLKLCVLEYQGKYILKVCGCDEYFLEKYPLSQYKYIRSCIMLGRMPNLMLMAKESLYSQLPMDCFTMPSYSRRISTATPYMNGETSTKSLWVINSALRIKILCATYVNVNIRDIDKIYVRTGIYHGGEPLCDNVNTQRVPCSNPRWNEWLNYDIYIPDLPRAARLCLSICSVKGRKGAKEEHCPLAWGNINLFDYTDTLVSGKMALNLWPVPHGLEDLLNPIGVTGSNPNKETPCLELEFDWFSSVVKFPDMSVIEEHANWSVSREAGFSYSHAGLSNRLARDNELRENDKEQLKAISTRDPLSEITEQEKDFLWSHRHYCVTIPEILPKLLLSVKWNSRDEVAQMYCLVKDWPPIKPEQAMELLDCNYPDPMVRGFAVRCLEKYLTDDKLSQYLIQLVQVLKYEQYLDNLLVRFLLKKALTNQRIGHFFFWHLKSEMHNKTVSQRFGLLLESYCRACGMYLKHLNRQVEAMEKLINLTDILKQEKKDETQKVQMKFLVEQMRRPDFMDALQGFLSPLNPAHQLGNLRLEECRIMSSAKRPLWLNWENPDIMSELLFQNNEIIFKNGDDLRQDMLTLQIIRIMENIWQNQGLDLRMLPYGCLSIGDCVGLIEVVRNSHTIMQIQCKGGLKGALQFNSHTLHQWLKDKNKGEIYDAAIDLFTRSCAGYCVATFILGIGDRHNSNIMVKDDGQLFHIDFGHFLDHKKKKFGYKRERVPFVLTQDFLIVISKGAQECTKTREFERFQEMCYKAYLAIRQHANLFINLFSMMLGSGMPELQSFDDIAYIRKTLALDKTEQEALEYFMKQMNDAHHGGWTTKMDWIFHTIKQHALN
T3 sequence (P42336 whole entry): as above
T3 sequence (P27986 whole entry partner): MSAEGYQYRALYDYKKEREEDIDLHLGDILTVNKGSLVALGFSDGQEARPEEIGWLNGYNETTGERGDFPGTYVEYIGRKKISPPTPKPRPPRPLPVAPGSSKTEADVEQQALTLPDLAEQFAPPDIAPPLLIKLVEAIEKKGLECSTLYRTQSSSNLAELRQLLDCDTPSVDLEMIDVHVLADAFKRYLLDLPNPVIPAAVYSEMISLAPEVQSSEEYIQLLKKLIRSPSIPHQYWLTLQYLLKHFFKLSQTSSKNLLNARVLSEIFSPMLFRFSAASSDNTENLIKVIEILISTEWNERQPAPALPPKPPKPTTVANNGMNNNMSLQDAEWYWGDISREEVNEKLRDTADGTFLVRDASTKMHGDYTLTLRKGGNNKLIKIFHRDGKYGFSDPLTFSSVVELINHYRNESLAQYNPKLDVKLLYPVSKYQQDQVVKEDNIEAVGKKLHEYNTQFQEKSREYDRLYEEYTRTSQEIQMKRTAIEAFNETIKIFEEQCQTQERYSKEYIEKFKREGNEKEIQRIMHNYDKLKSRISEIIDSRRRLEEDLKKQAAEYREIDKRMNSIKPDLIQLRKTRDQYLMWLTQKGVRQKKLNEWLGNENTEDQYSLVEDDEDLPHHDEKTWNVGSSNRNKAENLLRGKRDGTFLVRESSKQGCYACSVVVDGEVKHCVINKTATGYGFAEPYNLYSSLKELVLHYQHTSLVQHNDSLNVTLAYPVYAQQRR
T1 sequence (P42336 whole entry): as the sequence (P42336 whole entry) above
T1 sequence (P27986 whole entry partner): as the sequence (P27986 whole entry partner) above
T2 sequence (P42338 whole entry): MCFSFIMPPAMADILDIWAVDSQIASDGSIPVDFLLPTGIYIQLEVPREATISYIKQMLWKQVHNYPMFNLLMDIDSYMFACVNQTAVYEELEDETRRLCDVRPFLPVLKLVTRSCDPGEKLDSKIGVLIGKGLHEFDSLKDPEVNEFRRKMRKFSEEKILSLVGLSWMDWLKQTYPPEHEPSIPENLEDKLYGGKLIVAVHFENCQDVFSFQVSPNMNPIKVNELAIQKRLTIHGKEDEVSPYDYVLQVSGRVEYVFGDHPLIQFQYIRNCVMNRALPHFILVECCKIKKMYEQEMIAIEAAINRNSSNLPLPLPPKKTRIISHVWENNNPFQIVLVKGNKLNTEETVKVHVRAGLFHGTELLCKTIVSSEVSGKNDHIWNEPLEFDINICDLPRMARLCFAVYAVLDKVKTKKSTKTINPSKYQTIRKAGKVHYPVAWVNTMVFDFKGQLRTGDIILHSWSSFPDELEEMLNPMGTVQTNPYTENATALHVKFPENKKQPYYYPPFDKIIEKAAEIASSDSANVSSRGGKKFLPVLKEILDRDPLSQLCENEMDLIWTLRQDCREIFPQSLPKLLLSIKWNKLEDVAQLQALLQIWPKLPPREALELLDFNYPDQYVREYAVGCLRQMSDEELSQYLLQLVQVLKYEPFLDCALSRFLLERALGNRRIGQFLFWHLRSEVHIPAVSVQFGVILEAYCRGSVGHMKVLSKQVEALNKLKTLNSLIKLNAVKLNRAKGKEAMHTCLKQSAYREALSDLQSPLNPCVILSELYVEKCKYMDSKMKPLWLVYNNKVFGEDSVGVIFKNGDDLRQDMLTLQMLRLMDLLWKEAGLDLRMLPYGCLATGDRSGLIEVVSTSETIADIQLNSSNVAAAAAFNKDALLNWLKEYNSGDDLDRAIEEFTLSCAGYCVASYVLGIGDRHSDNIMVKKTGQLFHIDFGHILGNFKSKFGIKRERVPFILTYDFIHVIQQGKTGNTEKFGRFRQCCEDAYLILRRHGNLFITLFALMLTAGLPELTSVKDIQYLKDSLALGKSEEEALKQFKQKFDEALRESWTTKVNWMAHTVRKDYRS
T2 sequence (P27986 whole entry partner): as the sequence (P27986 whole entry partner) above
T4 sequence (P48736 whole entry): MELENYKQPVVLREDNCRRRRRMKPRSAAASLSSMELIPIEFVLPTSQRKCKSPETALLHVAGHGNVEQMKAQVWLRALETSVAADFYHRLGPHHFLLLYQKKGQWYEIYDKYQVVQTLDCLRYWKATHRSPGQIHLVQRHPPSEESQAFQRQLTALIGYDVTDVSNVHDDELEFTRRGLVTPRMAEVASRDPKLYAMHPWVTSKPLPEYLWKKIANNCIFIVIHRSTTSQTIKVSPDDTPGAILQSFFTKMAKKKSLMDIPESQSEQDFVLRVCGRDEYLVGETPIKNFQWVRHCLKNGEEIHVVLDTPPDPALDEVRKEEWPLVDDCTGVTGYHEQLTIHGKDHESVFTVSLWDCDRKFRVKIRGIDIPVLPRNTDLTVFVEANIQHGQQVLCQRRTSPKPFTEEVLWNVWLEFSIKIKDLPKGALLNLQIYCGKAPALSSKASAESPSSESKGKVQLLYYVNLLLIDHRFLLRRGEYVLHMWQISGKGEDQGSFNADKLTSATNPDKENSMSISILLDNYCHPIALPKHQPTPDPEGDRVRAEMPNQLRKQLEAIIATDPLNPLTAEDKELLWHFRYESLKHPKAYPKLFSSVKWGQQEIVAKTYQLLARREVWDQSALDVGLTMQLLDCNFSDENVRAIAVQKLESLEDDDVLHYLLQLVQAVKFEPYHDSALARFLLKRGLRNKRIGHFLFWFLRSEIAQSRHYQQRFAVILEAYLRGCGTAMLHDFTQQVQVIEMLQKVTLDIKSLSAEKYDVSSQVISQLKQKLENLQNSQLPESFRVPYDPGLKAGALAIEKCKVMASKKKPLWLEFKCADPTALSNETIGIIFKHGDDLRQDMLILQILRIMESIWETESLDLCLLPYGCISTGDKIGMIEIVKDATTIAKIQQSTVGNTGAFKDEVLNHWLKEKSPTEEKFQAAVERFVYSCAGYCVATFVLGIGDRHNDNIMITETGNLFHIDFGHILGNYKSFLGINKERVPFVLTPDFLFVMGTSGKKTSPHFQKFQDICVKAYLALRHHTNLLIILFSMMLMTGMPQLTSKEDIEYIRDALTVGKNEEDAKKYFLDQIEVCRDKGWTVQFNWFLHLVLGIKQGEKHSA

Row | IC50 [2] | IC50 [3] | EC50 [4, 16] | Compound | GI50 [1, 15] | covalent modification of PI3Kα [6] | mass shift of PI3Kα [6] | mass shift of PI3Kα, per cent in brackets [6] | Prolonged PD ([8]; Table 18) | EC50 [4, 17] | target occupancy (competition with the covalent probe) [10] | Prolonged PD ([8]; Table 19) | also measured
1 | 100 to 1000 nM | 100 to 1000 nM | 100 to 1000 nM | C=CC(=O)Nc1ccc(C(=O)N2CC=C(c3cc4nc(-c5cccc6[nH]ncc56)nc(N5CCOCC5)c4s3)CC2)cc1 [II-a-144, N-(4-(4-(2-(1H-indazol-4-yl)-4-morpholinothieno[3,2-d]pyrimidin-6-yl)-1,2,3,6-tetrahydropyridine-1-carbonyl)phenyl)acrylamide] | 100 to 1000 nM | complete modification; also recorded: covalent modification | 575 Da | 97% |  |  |  |  | site on PI3Kα that is covalently modified [5]: Cys-862; also recorded: peptide ^853NSHTIMQIQCK^863
2 | 100 to 1000 nM | > 1000 nM | 100 to 1000 nM | CCC(=O)Nc1ccc(CCNC(=O)c2cc3nc(-c4cccc5[nH]ncc45)nc(N4CCOCC4)c3s2)cc1 [II^R-a-148, 2-(1H-indazol-4-yl)-4-morpholino-N-(4-propionamidophenethyl)thieno[3,2-d]pyrimidine-6-carboxamide] |  |  |  |  | No | 100 to 1000 nM |  |  | IC50 [7]: > 1000 nM
3 |  |  |  | CS(=O)(=O)N1CCN(Cc2cc3nc(-c4cccc5[nH]ncc45)nc(N4CCOCC4)c3s2)CC1 [GDC-941, reference compound] |  |  |  |  |  |  | does not compete with the covalent probe | No | EC50 [9]: 1000 to 10000 nM; tumor growth [11]: Inhibition of tumor growth; EC50 [12]: […]; EC50 [13]: 1000 to 10000 nM

Row | Compound | IC50 [2] | IC50 [3] | EC50 [4, 16] | GI50 [1, 15] | covalent modification of PI3Kα [6] | mass shift of PI3Kα [6] | mass shift of PI3Kα, per cent in brackets [6] | Prolonged PD ([8]; Table 18) | EC50 [4, 17] | target occupancy (competition with the covalent probe) [10] | Prolonged PD ([8]; Table 19) | also measured
4 | C=CC(=O)Nc1ccc(CCNC(=O)c2cc3nc(-c4cccc5[nH]ncc45)nc(N4CCOCC4)c3s2)cc1 [II-a-148, N-(4-acrylamidophenethyl)-2-(1H-indazol-4-yl)-4-morpholinothieno[3,2-d]pyrimidine-6-carboxamide] | 100 to 1000 nM | > 1000 nM | 10 to 100 nM | 10 to 100 nM | complete modification; also recorded: covalent modification | 472 Da | 85% | Yes | 10 to 100 nM | Dose-dependent target occupancy | Yes | GI50 ([1]; Table 19, assay not given, classes agree with Table 26): 10 to 100 nM; EC50 ([10]; read-out: EC50 for occupying p110alpha, covalent probe XIV-a-3 or XIV-a-4): ~40 nM; EC50 ([4]; Table 19, assay not given, classes agree with Table 23, read-out: EC50 pAkt^Ser473): 10 to 100 nM; EC50 [14]: ≤ 10 nM
